The experiment addresses MCH receptor (Homo sapiens, UniProt Q99705). As to the kind of experiment: High Throughput Functional Screening: FLIPR/FDSS6000 intracellular Ca2+ assay, antagonist activity against MCH. To be noted: FLIPR/FDSS, [Ca2+]i evoked by 50 nM MCH, class by percent of control at 10^−7 M or IC50; for IC50: read-out: class (percent of control at 10^−7 M or IC50). More on the design: class (percent of control at 10^−7 M or IC50): scale not given here. Format: cell-based. The text has this: Subsequently, a functional based assay was used to confirm the lead hits, referred to as FLIPR™ (the Fluorometric Imaging Plate Reader) and FDSS6000™ (Functional Drug Screening System). This assay utilized a non-endogenous, constitutively active version of the MCH receptor.
The FLIPR and FDSS assays are able to detect intracellular Ca^2+ concentration in cells, which can be utilized to assess receptor activation and determine whether a candidate compound is an, for example, antagonist, inverse agonist or agonist to a Gq-coupled receptor. The concentration of free Ca^2+ in the cytosol of any cell is extremely low, whereas its concentration in the extracellular fluid and endoplasmic reticulum (ER) is very high. Thus, there is a large gradient tending to drive Ca^2+ into the cytosol across both the plasma membrane and ER. The FLIPR™ and FDSS6000™ systems (Molecular Devices Corporation, HAMAMATSU Photonics K.K.) are designed to perform functional cell-based assays, such as the measurement of intracellular calcium for high-throughput screening. The measurement of fluorescent is associated with calcium release upon activation of the Gq-coupled receptors.
Fluorometric Imaging Plate Reader system was used to allow for rapid, kinetic measurements of intracellular fluorescence in 96 well microplates (or 384 well microplates). Simultaneous measurements of fluorescence in all wells can be made by FLIPR or FDSS6000™ every second with high sensitivity and precision. These systems are ideal for measuring cell-based functional assays such as monitoring the intracellular calcium fluxes that occur within seconds after activation of the Gq coupled receptor.
Briefly, the cells are seeded into 96 well at 5.5×10^4 cells/well with complete culture media (Dulbecco's Modified Eagle Medium with 10% fetal bovine serum, 2 mM L-glutamine, 1 mM sodium pyruvate and 0.5 mg/mL G418, pH 7.4) for the assay next day. On the day of assay, the media is removed and the cells are incubated with 100 μl of loading buffer (4 μM Fluo4-AM in complete culture media containing 2.5 mM Probenicid, 0.5 mg/ml and 0.2% bovine serum albumin) in 5% CO2 incubator at 37° C. for 1 hr. The loading buffer is removed, and the cells are washed with wash buffer (Hank's Balanced Salt Solution containing 2.5 mM Probenicid, 20 mM HEPES, 0.5 mg/mL and 0.2% bovine serum albumin, pH 7.4). One hundred fifty μl of wash buffer containing various concentrations of test compound is added to the cells, and the cells are incubated in 5% CO2 incubator at 37° C. for 30 min. Fifty μl of wash buffer containing various concentration of MCH are added to each well, and transient changes in [Ca^2+]i evoked by MCH are monitored using the FLIPR™ or FDSS in 96 well plates at Ex. 488 nm and Em. 530 nm for 290 second. When antagonist activity of compound is tested, 50 nM of MCH is used.
Use of FLIPR™ and FDSS6000™ can be accomplished by following manufacturer's instruction (Molecular Device Corporation and HAMAMATSU Photonics K.K.).

Each structure is given as a SMILES string. Where a name gives a salt, the structure may show the parent alone. Where only a bound is given, the exact number is not on record here.

The values that follow come from patent publication US20080090863A1, “Pyridine Derivatives and Their Use as Medicaments for Treating Diseases Related to Mch Receptor” (TAISHO PHARMACEUTICAL CO., LTD., priority 2004, published 2008).

One may read the IC50 as the concentration that inhibits the measured activity by half.

Turning to `Cc1cc(N[C@H]2CC[C@@H](NC(=O)c3ccc(F)c(Cl)c3)CC2)nc2c1CCC2` [Example 33, 3-Chloro-4-fluoro-N-{cis-4-[(4-methyl-6,7-dihydro-5H-cyclopenta[b]pyridin-2-yl)amino]cyclohexyl}benzamide hydrochloride], the IC50 was below 50 nM.

Take `Cc1cc(N[C@H]2CC[C@@H](NC(=O)c3ccc(F)c(Cl)c3)CC2)nc2c1CCCC2` [Example 34, 3-Chloro-4-fluoro-N-{cis-4-[(4-methyl-5,6,7,8-tetrahydroquinolin-2-yl)amino]cyclohexyl}benzamide hydrochloride]: the IC50 is below 50 nM.

`Cc1ccnc(N[C@H]2CC[C@@H](NC(=O)c3ccc(F)c(Cl)c3)CC2)c1.Cl` [Example 35, 3-Chloro-4-fluoro-N-{cis-4-[(4-methylpyridin-2-yl)amino]cyclohexyl}benzamide hydrochloride]: the “class (percent of control at 10^−7 M or IC50)” value worked out at 2.

Consider `CN(C)c1ccnc(N[C@H]2CC[C@@H](NC(=O)c3ccc(F)c(Cl)c3)CC2)c1` [Example 36, 3-Chloro-N-(cis-4-{[4-(dimethylamino)pyridin-2-yl]amino}cyclohexyl)-4-fluorobenzamide hydrochloride], for which the IC50 is below 50 nM.

Take `CN(C)c1ccnc(N[C@H]2CC[C@@H](NC(=O)c3cc(F)c(F)c(F)c3)CC2)c1` [Example 37, N-(cis-4-{[4-(Dimethylamino)pyridin-2-yl]amino}cyclohexyl)-3,4,5-trifluorobenzamide hydrochloride]: the IC50 was below 50 nM.

Take `O=C(N[C@H]1CC[C@@H](Nc2ccc3c(n2)CCCC3)CC1)c1ccc(F)c(Cl)c1` [Example 39, 3-Chloro-4-fluoro-N-[cis-4-(5,6,7,8-tetrahydroquinolin-2-ylamino)cyclohexyl]benzamide hydrochloride]: the IC50 is below 50 nM.

With `O=C(N[C@H]1CC[C@@H](Nc2ccc3c(n2)CCCC3)CC1)c1cc(F)c(F)c(F)c1` [Example 40, 3,4,5-Trifluoro-N-[cis-4-(5,6,7,8-tetrahydroquinolin-2-ylamino)cyclohexyl]benzamide hydrochloride], the IC50 is below 50 nM.

Consider `Cc1ccc(N[C@H]2CC[C@@H](NC(=O)c3ccc(F)c(Cl)c3)CC2)nc1C` [Example 43, 3-Chloro-N-{cis-4-[(5,6-dimethylpyridin-2-yl)amino]cyclohexyl}-4-fluorobenzamide hydrochloride], for which the IC50 was below 50 nM.

Regarding `Cc1cnc(N[C@H]2CC[C@@H](NC(=O)c3ccc(F)c(Cl)c3)CC2)cc1N(C)CCc1ccccc1.Cl` [Example 49, 3-Chloro-4-fluoro-N-[cis-4-({5-methyl-4-[methyl(2-phenylethyl)amino]pyridin-2-yl}amino)cyclohexyl]benzamide hydrochloride], the “class (percent of control at 10^−7 M or IC50)” value came out at 2.

On to `Cc1cc(N[C@H]2CC[C@@H](NC(=O)c3ccc(F)c(Cl)c3)CC2)nc(C)c1C` [Example 50, 3-Chloro-4-fluoro-N-{cis-4-[(4,5,6-trimethylpyridin-2-yl)amino]cyclohexyl}benzamide hydrochloride], for which the IC50 was below 50 nM.

`Cc1cnc(N[C@H]2CC[C@@H](NC(=O)c3ccc(F)c(Cl)c3)CC2)cc1C` [Example 51, 3-Chloro-N-{cis-4-[(4,5-dimethylpyridin-2-yl)amino]cyclohexyl}-4-fluorobenzamide hydrochloride]: the IC50 was below 50 nM.

For the compound `Cc1cc(C)nc(N[C@H]2CC[C@@H](NC(=O)c3ccc(F)c(Cl)c3)CC2)c1` [Example 52, 3-Chloro-N-{cis-4-[(4,6-dimethylpyridin-2-yl)amino]cyclohexyl}-4-fluorobenzamide hydrochloride], the IC50 is below 50 nM.

`Cc1cc(C)c(N[C@H]2CC[C@@H](NC(=O)c3ccc(F)c(Cl)c3)CC2)nc1C.Cl` [Example 53, 3-Chloro-4-fluoro-N-{cis-4-[(3,5,6-trimethylpyridin-2-yl)amino]cyclohexyl}benzamide hydrochloride]: the “class (percent of control at 10^−7 M or IC50)” value was 2.

For the compound `Cc1cc(N(C)C)cc(N[C@H]2CC[C@@H](NC(=O)c3ccc4nonc4c3)CC2)n1` [Example 146, N-(cis-4-{[4-(dimethylamino)-6-methylpyridin-2-yl]amino}cyclohexyl)-2,1,3-benzoxadiazole-5-carboxamide], the IC50 was below 50 nM.

On to `Cc1cc(N(C)C)cc(N[C@H]2CC[C@@H](NC(=O)COc3ccc(Cl)cc3)CC2)n1` [Example 147, 2-(4-chlorophenoxy)-N-(cis-4-{[4-(dimethylamino)-6-methylpyridin-2-yl]amino}cyclohexyl)acetamide], for which the IC50 was below 50 nM.

On to `CCCN(CCC)S(=O)(=O)c1ccc(C(=O)N[C@H]2CC[C@@H](Nc3cc(N(C)C)cc(C)n3)CC2)cc1` [Example 166, N-(cis-4-{[4-(dimethylamino)-6-methylpyridin-2-yl]amino}cyclohexyl)-4-[(dipropylamino)sulfonyl]benzamide], for which the “class (percent of control at 10^−7 M or IC50)” value was 2.

`Cc1cc(N(C)C)cc(N[C@H]2CC[C@@H](NC(=O)Cc3cccc4ccccc34)CC2)n1` [Example 168, N-(cis-4-{[4-(dimethylamino)-6-methylpyridin-2-yl]amino}cyclohexyl)-2-(1-naphthyl)acetamide]: the “class (percent of control at 10^−7 M or IC50)” value was 2.

Turning to `Cc1cc(N(C)C)cc(N[C@H]2CC[C@@H](NC(=O)c3ccc(F)c(F)c3)CC2)n1` [Example 171, N-(cis-4-{[4-(dimethylamino)-6-methylpyridin-2-yl]amino}cyclohexyl)-3,4-difluorobenzamide], the IC50 is below 50 nM.

As to `Cc1cc(N(C)C)cc(N[C@H]2CC[C@@H](NC(=O)c3cccc(C(F)(F)F)c3)CC2)n1` [Example 177, N-(cis-4-{[4-(dimethylamino)-6-methylpyridin-2-yl]amino}cyclohexyl)-3-(trifluoromethyl)benzamide], the “class (percent of control at 10^−7 M or IC50)” value is reported as 2.

For `Cc1cc(N(C)C)cc(N[C@H]2CC[C@@H](NC(=O)c3ccc(Cl)cc3)CC2)n1` [Example 185, 4-chloro-N-(cis-4-{[4-(dimethylamino)-6-methylpyridin-2-yl]amino}cyclohexyl)benzamide], the IC50 is below 50 nM.

Turning to `Cc1cc(N(C)C)cc(N[C@H]2CC[C@@H](NC(=O)C3(c4ccc(Cl)cc4)CCCC3)CC2)n1` [Example 186, 1-(4-chlorophenyl)-N-(cis-4-{[4-(dimethylamino)-6-methylpyridin-2-yl]amino}cyclohexyl)cyclopentanecarboxamide], the IC50 was below 50 nM.

Consider `Cc1cc(N(C)C)cc(N[C@H]2CC[C@@H](NC(=O)c3cccc([N+](=O)[O-])c3)CC2)n1` [Example 190, N-(cis-4-{[4-(dimethylamino)-6-methylpyridin-2-yl]amino}cyclohexyl)-3-nitrobenzamide], for which the IC50 was below 50 nM.

Consider `COc1ccc(Oc2ccc([N+](=O)[O-])cc2C(=O)N[C@H]2CC[C@@H](Nc3cc(N(C)C)cc(C)n3)CC2)cc1` [Example 192, N-(cis-4-{[4-(dimethylamino)-6-methylpyridin-2-yl]amino}cyclohexyl)-2-(4-methoxyphenoxy)-5-nitrobenzamide], for which the IC50 is below 50 nM.

As for `Cc1cc(N(C)C)cc(N[C@H]2CC[C@@H](NC(=O)c3cccnc3Oc3ccccc3)CC2)n1` [Example 203, N-(cis-4-{[4-(dimethylamino)-6-methylpyridin-2-yl]amino}cyclohexyl)-2-phenoxynicotinamide], the “class (percent of control at 10^−7 M or IC50)” value amounted to 2.

For the compound `Cc1cc(N(C)C)cc(N[C@H]2CC[C@@H](NCCOc3ccc(Cl)cc3)CC2)n1` [Example 209, N-(cis-4-{[2-(4-chlorophenoxy)ethyl]amino}cyclohexyl)-N,N-6-trimethylpyridine-2,4-diamine], the “class (percent of control at 10^−7 M or IC50)” value is on record as 2.
